The subject of assay [1] is T29Kt1 cells. The assay is described as follows: cells. The settings on record: Homo sapiens.
In assay [2] the test system is H460 cells. The assay is described as follows: cells. Particulars: Homo sapiens.
Assay [3] has as its system T29 cells. Description: cells. The settings on record: Homo sapiens, T29, read-out: IC50 in T29 cells.
Assay [4] relates to T29Kt1 cells. The settings on record: Table 1; value is the negative log10 of mol/L.
Assay [5] concerns H460 cells. The settings on record: Table 1; value is the negative log10 of mol/L.
Assay [6] deals with T29 cells. Particulars: Table 1; value is the negative log10 of mol/L.
The next assay relates to H23. Description: Cell viability, H23 lung cancer cells. Format: cell-based, human. Particulars: Homo sapiens, NCI-H23; H23, Lung; read-out: IC50 (−LogM) (converted).
For the next assay, the system named is DLD1. Description: Cell viability, DLD1 colon cancer cells. The assay is classed as cell-based, human. The settings on record: Homo sapiens, DLD-1; DLD1, Colon; read-out: IC50 (−LogM) (converted).
A further assay concerns Hct116. The assay is described as follows: Cell viability, Hct116 colon cancer cells. Format: cell-based, human. The settings on record: Homo sapiens, HCT-116; Hct116, Colon; read-out: IC50 (−LogM) (converted).
The next assay concerns H2009. The assay is described as follows: Cell viability, H2009 lung cancer cells. Format: cell-based, human. Particulars: Homo sapiens, NCI-H2009; H2009, Lung; read-out: IC50 (−LogM) (converted).
A further assay concerns CT116P53. The assay is described as follows: Cell viability, CT116P53 colon cancer cells. The settings on record: Homo sapiens; CT116P53, Colon; read-out: IC50 (−LogM) (converted). The assay is classed as cell-based, human.
A further assay relates to Capanc-1. Description: Cell viability, Capanc-1 pancreatic cancer cells. Format: cell-based, human. Particulars: Homo sapiens, Pancreatic cancer cell; capanc1, Pancrease; read-out: IC50 (−LogM) (converted).
The next assay relates to AsPC-1. Description: Cell viability, AsPC-1 pancreatic cancer cells. Particulars: Homo sapiens; ASPC1, Pancrease; read-out: IC50 (−LogM) (converted). The assay is classed as cell-based, human.
The subject of another assay is H1395. The assay is described as follows: Cell viability, H1395 lung cancer cells. The assay is classed as cell-based, human. Particulars: Homo sapiens, NCI-H1395; H1395, Lung; read-out: IC50 (−LogM) (converted).
The next assay concerns H1299 cells. The assay is described as follows: Cell viability, H1299 lung cancer cells. The assay is classed as cell-based, human. The settings on record: Homo sapiens, NCI-H1299; h1299, Lung; read-out: IC50 (−LogM) (converted).
The next assay relates to H2122. The assay is described as follows: Cell viability, H2122 lung cancer cells. The settings on record: Homo sapiens, NCI-H2122; H2122, Lung; read-out: IC50 (−LogM) (converted). The assay is classed as cell-based, human.
In another assay the test system is HKE3. The assay is described as follows: Cell viability, HKE3 colon cancer cells. The assay is classed as cell-based, human. Particulars: Homo sapiens, HKE3, Colon, read-out: IC50 (−LogM) (converted).
The test system of another assay is H1933. The assay is described as follows: Cell viability, H1933 lung cancer cells. The settings on record: Homo sapiens; H1933, Lung; read-out: IC50 (−LogM) (converted). The assay is classed as cell-based, human.
In a further assay the test system is A549CK8. The assay is described as follows: Cell viability, A549CK8 lung cancer cells. The assay is classed as cell-based, human. Particulars: Homo sapiens; A549CK8, Lung; read-out: IC50 (−LogM) (converted).
The next assay relates to Sw620. Description: Cell viability, Sw620 colon cancer cells. The settings on record: Homo sapiens, SW-620; Sw620, Colon; read-out: IC50 (−LogM) (converted). The assay is classed as cell-based, human.
A further assay relates to Heb46. The assay is described as follows: Cell viability, Heb46 kidney cells. Format: cell-based.
A further assay has as its system Ovcar3. The assay is described as follows: Cell viability, Ovcar3 ovary cancer cells. Format: cell-based. The settings on record: Homo sapiens, OVCAR-3.
Another assay concerns Hey. Description: Cell viability, Hey ovary cancer cells. Format: cell-based.
The subject of a further assay is H226B cells. The assay is described as follows: Cell viability, H226B lung cancer cells. Particulars: Homo sapiens, H226B, Lung, read-out: IC50 (−LogM) (converted). The assay is classed as cell-based, human.
The subject of a further assay is Heb44. The assay is described as follows: Cell viability, Heb44 kidney cells. Format: cell-based.
In a further assay the test system is miapac. The assay is described as follows: Cell viability, miapac pancreatic cancer cells. The assay is classed as cell-based, human. Particulars: Homo sapiens, Pancreatic cancer cell; miapac, Pancrease; read-out: IC50 (−LogM) (converted).
For the next assay, the system named is H2087. The assay is described as follows: Cell viability, H2087 lung cancer cells. Format: cell-based, human. The settings on record: Homo sapiens, NCI-H2087; H2087, Lung; read-out: IC50 (−LogM) (converted).
The subject of another assay is SKOV3. The assay is described as follows: Cell viability, SKOV3 ovary cancer cells. Particulars: Homo sapiens, SK-OV-3. The assay is classed as cell-based.
Another assay relates to Ovca429. The assay is described as follows: Cell viability, Ovca429 ovary cancer cells. Format: cell-based.
A further assay deals with H322 cells. Description: Cell viability, H322 lung cancer cells. The assay is classed as cell-based, human. The settings on record: Homo sapiens, NCI-H322; H322, Lung; read-out: IC50 (−LogM) (converted).
For the next assay, the system named is A549 cells. The assay is described as follows: Cell viability, A549 lung cancer cells. The assay is classed as cell-based, human. The settings on record: Homo sapiens; A549, Lung; read-out: IC50 (−LogM) (converted).
The next assay concerns Ovcar443. Description: Cell viability, Ovcar443 ovary cancer cells. Format: cell-based.
Setting [7] is: T29Kt1, read-out: IC50 in T29k cells, Table 1.
The mark [8] stands for this setting: NCI-H460, read-out: IC50 in H460 cells, Table 1.
Setting [9] is: NCI-H460, read-out: IC50 (−LogM), H460, Lung (converted).

Where a name gives a salt, the structure may show the parent alone. Read-outs that look alike come from different tables or passages of the source. Where only a bound is given, the exact number is not on record here.

In the case of `OCn1cc(Cc2cc(C(F)(F)F)cc(C(F)(F)F)c2)c2ccccc21` [Oncrasin K77], the figures for the IC50 with T29Kt1 cells [1] (setting [7]), in the assay with H460 cells [2] (setting [8]) and in the assay with T29 cells [3] were 7.94 µM, 7.94 µM and 6.31 µM, respectively.
Take `COC(=O)c1c(C)n(Cc2cccc3ccccc23)c2ccc(O)cc12` [Oncrasin K011, methyl 5-hydroxy-2-methyl-1-(1-naphthylmethyl)-1H-indole-3-carboxylate]: the IC50 in the assay with T29Kt1 cells [1] (setting [7]) is 3.16 µM; in the assay on H460 cells [2] (setting [8]), 1.58 µM; in the assay with T29 cells [3], 3.16 µM.
With `Cc1ccc(Cn2cc(CO)c3ccccc32)cc1` [Oncrasin K67, 1H-Indole-3-methanol, 1-[(4-methylphenyl)methyl]-(9CI)], the “IC50 in T29k cells” value with T29Kt1 cells [4] came out at 6.1. Also, the “IC50 in H460 cells” value in the assay with H460 cells [5] is reported as 7. Moreover, the “IC50 in T29 cells” value with T29 cells [6] was determined as 4.8.
Turning to `O=[N+]([O-])c1ccc(Cn2cc(CO)c3ccccc32)cc1` [Oncrasin K71, 1H-Indole-3-methanol, 1-[(4-nitrophenyl)methyl]-], the IC50 was 31.6 µM in the assay on H23; less than 31.6 µM in the assay on DLD1; 3.16 µM in the assay on Hct116; less than 31.6 µM with H2009; less than 31.6 µM in the assay with CT116P53; 0.126 µM in the assay on Capanc-1. The IC50 in the assay with AsPC-1 is 10 µM; in the assay with H1395 it was less than 31.6 µM; with H1299 cells it was 10 µM; in the assay on T29Kt1 cells [1] (setting [7]), 0.158 µM; with H2122 it was 3.16 µM; with HKE3 (first HKE3 line) it was 0.398 µM. Moreover, the IC50 in the assay on HKE3 (second HKE3 line) is 0.2 µM; with H1933, 31.6 µM; with A549CK8 it was 7.94 µM; with Sw620, 31.6 µM; in the assay on Heb46 it was 3.98 µM; in the assay on Ovcar3 it was 2.51 µM. The IC50 with H460 cells [2] (setting [9]) was 0.0794 µM; in the assay with H460 cells [2] (setting [8]), 0.0794 µM; in the assay on Hey, 31.6 µM; in the assay on H226B cells (first H226B line), 0.316 µM; in the assay on H226B cells (second H226B line) it was 1.58 µM; in the assay with Heb44, 0.158 µM. Besides, the half-inhibitory concentration (IC50) with miapac is less than 31.6 µM.
Turning to `CC(C)(C)OC(=O)C1=C(N)N(Cc2ccccc2)C2(C)C=CC(=O)C=C12` (centres unmarked) [Oncrasin K041, tert-butyl 2-amino-1-benzyl-7a-methyl-5-oxo-indole-3-carboxylate], the IC50 in the assay on T29Kt1 cells [1] (setting [7]) and in the assay on T29 cells [3] was 5.01 µM in each case.
For `Cc1ccc(Cn2cc(C=O)c3ccccc32)cc1` [Oncrasin K66, 1H-Indole-3-carboxaldehyde, 1-[(4-methylphenyl)methyl]-], the half-maximal inhibitory concentration (IC50) in the assay on T29Kt1 cells [1] (setting [7]) was 3.98 µM; in the assay on H460 cells [2] (setting [8]) it was 0.0631 µM; with T29 cells [3], 31.6 µM.
The matching figures for `O=Cc1cn(Cc2cc(C(F)(F)F)cc(C(F)(F)F)c2)c2ccccc12` [Oncrasin K76]: 3.98 µM, 1.26 µM and 6.31 µM.
Regarding `O=C1C(=Cc2ccccn2)c2ccccc2N1Cc1ccccc1` [Oncrasin K046, 2-Indolinone, 1-benzyl-3-(2-pyridylmethylene)-(8CI)], the “IC50 in T29k cells” value in the assay with T29Kt1 cells [4] amounted to 5.3. In the assay on T29 cells [6], the “IC50 in T29 cells” value came out at 5.3.
Turning to `COc1ccc2c(c1)c(CCN)c(C)n2Cc1ccccc1` [Oncrasin K005, [2-(1-benzyl-5-methoxy-2-methyl-1H-indol-3-yl)ethyl]amine hydrochloride], the IC50 was 15.8 µM with T29Kt1 cells [1] (T29Kt1, read-out: IC50 in T29k cells); 6.31 µM in the assay with H460 cells [2] (NCI-H460, read-out: IC50 in H460 cells); 15.8 µM with T29 cells [3].
For “7H-Pyrrolo[2,3-d]pyrimidin-4-amine, N-[3-(1H-imidazol-1-yl)propyl]-5,6-diphenyl-7- [Oncrasin K017]”, the “IC50 in T29k cells” value in the assay on T29Kt1 cells [4] is on record as 5. In the assay on T29 cells [6], the “IC50 in T29 cells” value was 4.8.
As for `O=[N+]([O-])c1cccc(Cn2cc(CO)c3ccccc32)c1` [Oncrasin K69, 1H-Indole-3-methanol, 1-[(3-nitrophenyl)methyl]-], the IC50 in the assay on H2087 is 31.6 µM; in the assay on DLD1 it was less than 31.6 µM; in the assay on Hct116, 0.316 µM; with H2009, less than 31.6 µM; in the assay with CT116P53, less than 31.6 µM; in the assay on Capanc-1, 31.6 µM. Also, the IC50 with AsPC-1 is 7.94 µM; in the assay on H1395 it was less than 31.6 µM; with T29Kt1 cells [1] (setting [7]), 0.398 µM; with H2122 it was 2 µM; in the assay on SKOV3 it was 3.16 µM; in the assay with HKE3 (first HKE3 line), 0.0794 µM. The IC50 was 1 µM in the assay with HKE3 (second HKE3 line); less than 31.6 µM with H1933; 1.26 µM in the assay on A549CK8; 31.6 µM with Sw620; 0.316 µM in the assay with Heb46; 0.251 µM in the assay with Ovcar3. The IC50 is 31.6 µM in the assay with Ovca429; 0.0398 µM in the assay on H460 cells [2] (setting [9]); 0.0398 µM with H460 cells [2] (setting [8]); less than 31.6 µM in the assay with Hey; 0.0316 µM in the assay with H226B cells (first H226B line); 0.1 µM in the assay on H226B cells (second H226B line). Further, the results for the IC50 in the assay with Heb44 and in the assay on miapac were 0.0794 µM and less than 31.6 µM, respectively.
On to `OCc1cn(Cc2ccc(Cl)c(Cl)c2)c2ccccc12` [Oncrasin K049, [1-(3,4-dichlorobenzyl)-1H-indol-3-yl]methanol], for which the IC50 was 7.94 µM with H2087; 15.8 µM in the assay on H23; 10 µM in the assay on H322 cells; less than 31.6 µM with DLD1; 0.01 µM in the assay on Hct116; 10 µM in the assay with H2009. Besides, the IC50 in the assay on CT116P53 was less than 31.6 µM; in the assay on Capanc-1, 12.6 µM; in the assay on AsPC-1 it was 10 µM; in the assay with A549 cells it was 10 µM; with H1395, 15.8 µM; with H1299 cells, 10 µM. The IC50 in the assay with T29Kt1 cells [1] (setting [7]) was 0.316 µM; in the assay with H2122, 0.316 µM; in the assay with SKOV3, 3.16 µM; in the assay on HKE3 (first HKE3 line) it was 0.00251 µM; with HKE3 (second HKE3 line), 0.00316 µM; with Ovcar443, 10 µM. Further, the IC50 in the assay on H1933 was 100 µM; with A549CK8, 6.31 µM; in the assay with Heb46, 0.0316 µM; in the assay with Ovcar3, 0.01 µM; in the assay on Ovca429, 7.94 µM; with H460 cells [2] (setting [9]), 0.0316 µM. Further, the IC50 with H460 cells [2] (setting [8]) was 0.0316 µM; with H226B cells (first H226B line), 0.00251 µM; in the assay on H226B cells (second H226B line) it was 0.00316 µM; with Heb44 it was 0.01 µM; with miapac, less than 31.6 µM.
